The values that follow are results of earlier work, collected in patent publication US4258180A, “C6-Modified cyclodextrin sulfate salts as complement inhibitors” (American Cyanamid Company, priority 1979, dated 1981).

Where a name gives a salt, the structure may show the parent alone.

This data set concerns complement system. Particulars: British Journal of Experimental Pathology, 33, 327-339 (1952); cited from earlier work.

As to `Nc1ccc2cc(S(=O)(=O)O)cc(O)c2c1N=Nc1ccc(NC(=O)Nc2ccc(N=Nc3c(N)ccc4cc(S(=O)(=O)O)cc(O)c34)c(S(=O)(=O)O)c2)cc1S(=O)(=O)O` [chlorazol fast pink, 3,3'-ureylenebis-[6-(2-amino-8-hydroxy-6-sulfo-1-naphthylazo)]benzenesulfonic acid, tetrasodium salt], the anticomplementary effect entry was “anticomplementary effect”.
